Results: patent US20200187502A1, “MICROBIOCIDAL OXADIAZOLE DERIVATIVES” (SYNGENTA PARTICIPATIONS AG, priority 2017, published 2020)

Assays:
[1] = tested on: Puccinia recondita f. Sp. Tritici; experiment: Fungicidal activity, wheat leaf disc curative (brown rust); type: in vivo; conditions: foliar, 200 ppm in the applied formulation, wheat leaf segments cv. Kanzler, curative (applied 1 day after inoculation), compared to untreated control, 6 to 8 days after application, read-out: disease control
How it was run: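 Spray application came one day after spore inoculation of Kanzler wheat leaf segments kept on agar. Conditions: 19° C, 75% relative humidity, dark before treatment and 12 h light/12 h dark after. Efficacy = % disease control compared with untreated, 6–8 days post-application.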

[2] = tested on: Puccinia recondita f. Sp. Tritici; experiment: Fungicidal activity, wheat leaf disc preventative (brown rust); type: in vivo; conditions: foliar, 200 ppm in the applied formulation, wheat leaf segments cv. Kanzler, compared to untreated control, 7 to 9 days after application, read-out: disease control
How it was run: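 Wheat cv. Kanzler leaf segments on agar were sprayed with formulated compound in water, then inoculated with spores 1 day later. Incubated at 19° C, 75% rh, 12 h light/12 h dark; percent disease control versus untreated scored 7 to 9 days after application.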

Phakopsora pachyrhizi = experiment: Fungicidal activity, soybean leaf disc preventative (Asian soybean rust); type: in vivo; conditions: foliar, 200 ppm in the applied formulation, soybean leaf disks, compared to untreated control, 12 to 14 days after application, read-out: disease control
How it was run: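 Read-out is percent disease control relative to untreated check discs, assessed once untreated discs show adequate disease, 12 to 14 days after application. Compounds, tested at 200 ppm in the applied formulation, are sprayed onto soybean leaf discs one day before inoculation with a spore suspension.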

[3] = tested on: Glomerella lacenarium (Colletotrichum lacenarium); experiment: Fungicidal activity, liquid culture, cucumber preventative (anthracnose); type: cell-based; conditions: 20 ppm in the applied formulation, liquid culture in PDB, inhibition of growth measured photometrically 3 to 4 days after application, compared to untreated control, read-out: disease control
How it was run: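 In liquid culture, cryo-stored conidia in potato dextrose broth were exposed to compound delivered from DMSO solution. Growth inhibition was measured photometrically after 3 to 4 days at 24° C.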

CC1CC1C(=O)N(C)Cc1ccc(-c2noc(C(F)(F)F)n2)s1 (stereo not drawn) [Compound 5.25, N,2-dimethyl-N-[[5-[5-(trifluoromethyl)-1,2,4-oxadiazol-3-yl]-2-thienyl]methyl]cyclopropanecarboxamide]
≥ 80%: pest or weed control at 200 ppm [1] | pest or weed control at 200 ppm [2] | pest or weed control at 200 ppm (Phakopsora pachyrhizi) | inhibition of growth at 20 ppm [3]

COC(C)C(=O)N(Cc1ccc(-c2noc(C(F)(F)F)n2)s1)OC (stereo not drawn) [Compound 1.1, N,2-dimethoxy-N-[[5-[5-(trifluoromethyl)-1,2,4-oxadiazol-3-yl]-2-thienyl]methyl]propanamide]
≥ 80%: pest or weed control at 200 ppm [1] | pest or weed control at 200 ppm [2] | pest or weed control at 200 ppm (Phakopsora pachyrhizi) | inhibition of growth at 20 ppm [3]

CON(Cc1ccc(-c2noc(C(F)(F)F)n2)s1)C(=O)C(N)=O [Compound 1.24, N′-methoxy-N′-[[5-[5-(trifluoromethyl)-1,2,4-oxadiazol-3-yl]-2-thienyl]methyl]oxamide]
≥ 80%: pest or weed control at 200 ppm [1] | pest or weed control at 200 ppm [2] | pest or weed control at 200 ppm (Phakopsora pachyrhizi) | inhibition of growth at 20 ppm [3]

CCN(Cc1ccc(-c2noc(C(F)(F)F)n2)s1)C(=O)C(C)C [Compound 4.7, N-ethyl-2-methyl-N-[[5-[5-(trifluoromethyl)-1,2,4-oxadiazol-3-yl]-2-thienyl]methyl]propanamide]
≥ 80%: pest or weed control at 200 ppm [1] | pest or weed control at 200 ppm [2] | pest or weed control at 200 ppm (Phakopsora pachyrhizi) | inhibition of growth at 20 ppm [3]

COCCCC(=O)N(Cc1ccc(-c2noc(C(F)(F)F)n2)s1)OC [Compound 1.23, N,4-dimethoxy-N-[[5-[5-(trifluoromethyl)-1,2,4-oxadiazol-3-yl]-2-thienyl]methyl]butanamide]
≥ 80%: pest or weed control at 200 ppm [1] | pest or weed control at 200 ppm [2] | pest or weed control at 200 ppm (Phakopsora pachyrhizi) | inhibition of growth at 20 ppm [3]

C#CCNC(=O)N(C)Cc1ccc(-c2noc(C(F)(F)F)n2)s1 [Compound 4.81, 1-methyl-3-prop-2-ynyl-1-[[5-[5-(trifluoromethyl)-1,2,4-oxadiazol-3-yl]-2-thienyl]methyl]urea]
≥ 80%: pest or weed control at 200 ppm [1] | pest or weed control at 200 ppm [2] | pest or weed control at 200 ppm (Phakopsora pachyrhizi) | inhibition of growth at 20 ppm [3]

CCNC(=O)N(Cc1ccc(-c2noc(C(F)(F)F)n2)s1)C1CC1 [Compound 4.87, 1-cyclopropyl-3-ethyl-1-[[5-[5-(trifluoromethyl)-1,2,4-oxadiazol-3-yl]-2-thienyl]methyl]urea]
≥ 80%: pest or weed control at 200 ppm [1] | pest or weed control at 200 ppm [2] | pest or weed control at 200 ppm (Phakopsora pachyrhizi) | inhibition of growth at 20 ppm [3]

CON(Cc1ccc(-c2noc(C(F)(F)F)n2)s1)C(=O)CNC(C)=O [Compound 1.7, 2-acetamido-N-methoxy-N-[[5-[5-(trifluoromethyl)-1,2,4-oxadiazol-3-yl]-2-thienyl]methyl]acetamide]
≥ 80%: pest or weed control at 200 ppm [1] | pest or weed control at 200 ppm [2] | pest or weed control at 200 ppm (Phakopsora pachyrhizi) | inhibition of growth at 20 ppm [3]

C#CCNC(=O)N(Cc1ccc(-c2noc(C(F)(F)F)n2)s1)C(C)C [Compound 4.85, 1-isopropyl-3-prop-2-ynyl-1-[[5-[5-(trifluoromethyl)-1,2,4-oxadiazol-3-yl]-2-thienyl]methyl]urea]
≥ 80%: pest or weed control at 200 ppm [1] | pest or weed control at 200 ppm [2] | pest or weed control at 200 ppm (Phakopsora pachyrhizi) | inhibition of growth at 20 ppm [3]

CON(Cc1ccc(-c2noc(C(F)(F)F)n2)s1)C(=O)C1CCCO1 (stereo not drawn) [Compound 1.17, N-methoxy-N-[[5-[5-(trifluoromethyl)-1,2,4-oxadiazol-3-yl]-2-thienyl]methyl]tetrahydrofuran-2-carboxamide]
≥ 80%: pest or weed control at 200 ppm [1] | pest or weed control at 200 ppm [2] | pest or weed control at 200 ppm (Phakopsora pachyrhizi) | inhibition of growth at 20 ppm [3]

CN(Cc1ccc(-c2noc(C(F)(F)F)n2)s1)C(=O)CC1CC1 [Compound 5.18, 2-cyclopropyl-N-methyl-N-[[5-[5-(trifluoromethyl)-1,2,4-oxadiazol-3-yl]-2-thienyl]methyl]acetamide]
≥ 80%: pest or weed control at 200 ppm [1] | pest or weed control at 200 ppm [2] | pest or weed control at 200 ppm (Phakopsora pachyrhizi) | inhibition of growth at 20 ppm [3]

COCCC(=O)NCc1ccc(-c2noc(C(F)(F)F)n2)s1 [Compound 2.4, 3-methoxy-N-[[5-[5-(trifluoromethyl)-1,2,4-oxadiazol-3-yl]-2-thienyl]methyl]propanamide]
≥ 80%: pest or weed control at 200 ppm [1] | pest or weed control at 200 ppm [2] | pest or weed control at 200 ppm (Phakopsora pachyrhizi) | inhibition of growth at 20 ppm [3]

CON(Cc1ccc(-c2noc(C(F)(F)F)n2)s1)C(=O)C1(C)CC1 [Compound 1.15, N-methoxy-1-methyl-N-[[5-[5-(trifluoromethyl)-1,2,4-oxadiazol-3-yl]-2-thienyl]methyl]cyclopropanecarboxamide]
≥ 80%: pest or weed control at 200 ppm [1] | pest or weed control at 200 ppm [2] | pest or weed control at 200 ppm (Phakopsora pachyrhizi) | inhibition of growth at 20 ppm [3]

CON(Cc1ccc(-c2noc(C(F)(F)F)n2)s1)C(=O)C1CC1 [Compound 1.4, N-methoxy-N-[[5-[5-(trifluoromethyl)-1,2,4-oxadiazol-3-yl]-2-thienyl]methyl]cyclopropanecarboxamide]
≥ 80%: pest or weed control at 200 ppm [1] | pest or weed control at 200 ppm [2] | pest or weed control at 200 ppm (Phakopsora pachyrhizi) | inhibition of growth at 20 ppm [3]

COCCC(=O)N(Cc1ccc(-c2noc(C(F)(F)F)n2)s1)C(C)C [Compound 4.45, N-isopropyl-3-methoxy-N-[[5-[5-(trifluoromethyl)-1,2,4-oxadiazol-3-yl]-2-thienyl]methyl]propanamide]
≥ 80%: pest or weed control at 200 ppm [1] | pest or weed control at 200 ppm [2] | pest or weed control at 200 ppm (Phakopsora pachyrhizi) | inhibition of growth at 20 ppm [3]

CON(Cc1ccc(-c2noc(C(F)(F)F)n2)s1)C(=O)C1CCC1 [Compound 1.13, N-methoxy-N-[[5-[5-(trifluoromethyl)-1,2,4-oxadiazol-3-yl]-2-thienyl]methyl]cyclobutanecarboxamide]
≥ 80%: pest or weed control at 200 ppm [1] | pest or weed control at 200 ppm [2] | pest or weed control at 200 ppm (Phakopsora pachyrhizi) | inhibition of growth at 20 ppm [3]

CCC(=O)N(CC)Cc1ccc(-c2noc(C(F)(F)F)n2)s1 [Compound 4.26, N-ethyl-N-[[5-[5-(trifluoromethyl)-1,2,4-oxadiazol-3-yl]-2-thienyl]methyl]propanamide]
≥ 80%: pest or weed control at 200 ppm [1] | pest or weed control at 200 ppm [2] | pest or weed control at 200 ppm (Phakopsora pachyrhizi) | inhibition of growth at 20 ppm [3]

CCNC(=O)N(Cc1ccc(-c2noc(C(F)(F)F)n2)s1)C(C)C [Compound 4.83, 3-ethyl-1-isopropyl-1-[[5-[5-(trifluoromethyl)-1,2,4-oxadiazol-3-yl]-2-thienyl]methyl]urea]
≥ 80%: pest or weed control at 200 ppm [1] | pest or weed control at 200 ppm [2] | pest or weed control at 200 ppm (Phakopsora pachyrhizi) | inhibition of growth at 20 ppm [3]

CNC(=O)N(Cc1ccc(-c2noc(C(F)(F)F)n2)s1)C1CC1 [Compound 4.2, 1-cyclopropyl-3-methyl-1-[[5-[5-(trifluoromethyl)-1,2,4-oxadiazol-3-yl]-2-thienyl]methyl]urea]
≥ 80%: pest or weed control at 200 ppm [1] | pest or weed control at 200 ppm [2] | pest or weed control at 200 ppm (Phakopsora pachyrhizi) | inhibition of growth at 20 ppm [3]

CCCC(=O)N(Cc1ccc(-c2noc(C(F)(F)F)n2)s1)C1CC1 [Compound 4.54, N-cyclopropyl-N-[[5-[5-(trifluoromethyl)-1,2,4-oxadiazol-3-yl]-2-thienyl]methyl]butanamide]
≥ 80%: pest or weed control at 200 ppm [1] | pest or weed control at 200 ppm [2] | pest or weed control at 200 ppm (Phakopsora pachyrhizi) | inhibition of growth at 20 ppm [3]

CC(=O)NCc1ccc(-c2noc(C(F)(F)F)n2)s1 [Compound 2.11, N-[[5-[5-(trifluoromethyl)-1,2,4-oxadiazol-3-yl]-2-thienyl]methyl]acetamide]
≥ 80%: pest or weed control at 200 ppm [1] | pest or weed control at 200 ppm [2] | pest or weed control at 200 ppm (Phakopsora pachyrhizi) | inhibition of growth at 20 ppm [3]
